Data on three compounds can be found in patent US12383549B2, “Combination therapy of crenolanib and apoptosis pathway agents for the treatment of proliferative disorders” (Arog Pharmaceuticals, Inc., priority 2020, dated 2025).

Assay [1] has as its system PB and BM blasts of leukemia patients. Particulars: cited from earlier work.
Assay [2] deals with PDGFR, FLT3, and TRK kinases. Particulars: versus other kinases, including c-KIT, VEGFR2, TIE2, FGFR2, EGFR, ERBB2, and SRC; cited from earlier work.
Assay [3] has as its system relapsed or refractory AML patients with activating FLT3 mutations (FLT3-ITD). As to the kind of experiment: Clinical trial NCT02400281: oral crenolanib besylate in combination with intravenous azacitidine, single-patient case reports. The class given is in vivo, human. From the text:
For the majority of patients, the clinical response is short-lived. Response criteria for AML clinical trials are adapted from the International Working Group for AML (Cheson, Bennett et al. 2003). Responders are patients who obtain a Complete Response (CR), Complete Response with incomplete blood count recovery (CRi), or Partial Remission (PR). Briefly, criteria are as follows: • 1. Complete Remission (CR): • a. Peripheral blood counts: • i. No circulating blasts • ii. Neutrophil count ≥1.0×10^9/L • iii. Platelet count ≥100×10^9/L • b. Bone marrow aspirate and biopsy: • i. ≤5% blasts • ii. No Auer Rods • iii. No extramedullary leukemia • 2. Complete remission with incomplete blood count recovery (CRi): • a. Peripheral blood counts: • i. No circulating blasts • ii. Neutrophil count <1.0×10^9/L, or • iii. Platelet count <100×10^9/L • b. Bone marrow aspirate and biopsy • i. ≤5% blasts • ii. No Auer Rods • iii. No extramedullary leukemia • 3. Partial remission: • a. All CR criteria if abnormal before treatment except: • b. ≥50% reduction in bone marrow blast but still >5%
To overcome the poor prognosis of the persistent FLT3-ITD mutation, the patient was provided oral crenolanib besylate in combination with intravenous azacitidine on a clinical trial for relapsed or refractory AML patients with activating FLT3 mutations (NCT02400281). At baseline, the patient presented with 64% bone marrow blasts. The patient began treatment with 75 mg/m^2/day of azacitidine for 7 days and 60 mg of oral crenolanib besylate three times daily for the remainder of the 28 days cycle.
To overcome the poor prognosis of the persistent FLT3-ITD mutation, the patient was provided oral crenolanib besylate in combination with intravenous azacitidine on a clinical trial for relapsed or refractory AML patients with activating FLT3 mutations (NCT02400281). At baseline, the patient presented with 13% bone marrow blasts. The patient began treatment with 75 mg/m^2/day of azacitidine for 7 days and 80 mg of oral crenolanib besylate three times daily.

Take `CNC(=O)c1cc(Oc2ccc(NC(=O)Nc3ccc(Cl)c(C(F)(F)F)c3)cc2)ccn1` [sorafenib]: the “bone marrow (BM) blast reduction” value in assay [1] was “only modest BM blast reductions”.

For the compound `CC1(COc2ccc3c(c2)ncn3-c2ccc3cccc(N4CCC(N)CC4)c3n2)COC1` [crenolanib], the “selectivity for PDGFR, FLT3, and TRK kinases” value in assay [2] is listed as “significantly more selective”.

Turning to `CC1(COc2ccc3c(c2)ncn3-c2ccc3cccc(N4CCC(N)CC4)c3n2)COC1` [crenolanib besylate], the bone marrow blasts in assay [3] (Example 1: person, FLT3-ITD relapsed AML, baseline 64% blasts, azacitidine 75 mg/m^2/day for 7 days + crenolanib besylate 60 mg oral three times daily, after 27 days) came to 3%; in assay [3] (Example 2: person, FLT3-ITD AML relapsed after transplant, baseline 13% blasts, azacitidine 75 mg/m^2/day for 7 days + crenolanib besylate 80 mg oral three times daily, after 28 days), 1%. In addition, the clinical response result in assay [3] (Example 1: same patient and regimen with azacitidine, after 27 days, neutrophils recovered, platelets partially recovered) was “CRi”; in assay [3] (Example 2: same patient and regimen with azacitidine, after 28 days) it was “morphological leukemia free state”. In assay [3] (Example 2: single agent crenolanib besylate for an additional 28 days), the “clinical response on continued single agent therapy” value was “maintained a MLFS”.
